Experiments:
FGFR4 kinase = FGFR4 kinase (Homo sapiens (Human), UniProt P22455); assay: Enzymologic experiment of FGFR4 (TR-FRET); assay type: biochemical; conditions: TR-FRET kinase activity
Description: 1. Enzymologic Experiment of FGFR4
In this experiment, the inhibitory effect of the compounds on FGFR4 kinase activity was tested by a fluorescence resonance energy transfer (TR-FRET) method, and the half maximal inhibitory concentration (IC50) of the compounds on the FGFR4 kinase activity was determined.
2) 1˜5 μL of diluted solution in gradient of the compound were added.
(§1) 4) The mixture was incubated for 0.5-3 hours at room temperature.
(§2) 5) 10 μL of EDTA and a test solution comprising labeled antibody were added, and the plate was incubated for 1 hour at room temperature.
(§3) 6) The fluorescence signal values of each plate were determined by a microplate reader at 665 nm.
(§4) 7) The inhibition rates were calculated according to the fluorescence signal values.

FGFR1 kinase = FGFR1 kinase (Homo sapiens (Human), UniProt P11362); assay: Enzymologic experiment of FGFR1 (TR-FRET); assay type: biochemical; conditions: TR-FRET kinase activity
Chain of FGFR1 kinase (P11362 22-822): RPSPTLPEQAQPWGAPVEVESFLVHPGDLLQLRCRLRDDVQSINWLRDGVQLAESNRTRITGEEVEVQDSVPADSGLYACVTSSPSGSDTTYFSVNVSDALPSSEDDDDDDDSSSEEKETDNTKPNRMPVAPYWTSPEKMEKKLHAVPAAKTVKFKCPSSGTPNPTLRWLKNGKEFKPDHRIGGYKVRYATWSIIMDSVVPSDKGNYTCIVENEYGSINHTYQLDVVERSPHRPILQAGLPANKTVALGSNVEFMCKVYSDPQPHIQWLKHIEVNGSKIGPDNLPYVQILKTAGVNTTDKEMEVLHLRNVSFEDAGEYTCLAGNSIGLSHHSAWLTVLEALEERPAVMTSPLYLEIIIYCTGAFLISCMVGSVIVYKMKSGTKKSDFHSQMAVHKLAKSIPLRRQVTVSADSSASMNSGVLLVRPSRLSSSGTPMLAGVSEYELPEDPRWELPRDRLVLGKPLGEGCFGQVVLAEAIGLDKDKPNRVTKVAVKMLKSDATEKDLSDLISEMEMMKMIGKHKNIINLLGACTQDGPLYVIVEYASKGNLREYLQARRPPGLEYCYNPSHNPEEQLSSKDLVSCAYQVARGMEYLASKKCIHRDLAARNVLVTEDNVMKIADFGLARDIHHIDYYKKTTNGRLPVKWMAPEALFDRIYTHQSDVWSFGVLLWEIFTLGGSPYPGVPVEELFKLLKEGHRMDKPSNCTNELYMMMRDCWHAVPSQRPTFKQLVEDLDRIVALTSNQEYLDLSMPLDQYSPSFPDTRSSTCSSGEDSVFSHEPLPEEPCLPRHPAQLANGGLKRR
Description: 2. Enzymologic Experiment of FGFR1
In this experiment, the inhibitory effect of the compounds on FGFR1 kinase activity was tested by a fluorescence resonance energy transfer (TR-FRET) method, and the half maximal inhibitory concentration (IC50) of the compounds on the FGFR1 kinase activity was determined.
1) 1˜5 μL of FGFR1 enzymatic solution was added to a 384-well plate, and the final concentration of the enzyme was 0.1˜5 nM.
2) 1˜5 μL of diluted solution in gradient of the compound was added.
3) 1˜5 μL of a substrate mixture containing substrate polypeptide with a final concentration of 5˜50 nM and ATP with a final concentration of 10˜200 μM was added.
as §1, §2, §3, §4
The IC50 of the compound was obtained by curve fitting according to the inhibition rates at different concentrations, and the enzymatic activity of the specific example compounds is shown in Table 1.

[1] = Pharmacokinetic (PK) analysis in rats; assay type: in vivo, Sprague Dawley (SD) rats; conditions: SD rats, single intragastric administration, 5 mg/kg, plasma; for AUC(0-t) / AUC(0-inf) / half-life / MRT / Cmax: Sprague-Dawley, rat, po; for AUC(0-t): read-out: Area Under Curve AUC0-t; for AUC(0-inf): read-out: Area Under Curve AUC0-∞; for half-life: read-out: Half-Time t1/2 (converted); for MRT: read-out: Mean Residence Time MRT; for Cmax: read-out: Plasma Concentration Cmax
Description: 6. Pharmacokinetic (PK) Analysis in Rats
Mode of administration: a single intragastric administration.
Formulation: 0.5% CMC and 1% Tween 80, ultrasonic dissolution.
Sampling points: 0.5, 1, 2, 4, 6, 8 and 24 hours after administration.
1. 1.0 ml of intravenous blood was collected and placed in a K2EDTA test tube.
The blood was centrifuged at room temperature at the speed of 1000˜3000×g for 5˜20 minutes to isolate the plasma, which was then stored at −80° C. 2. 160 μL of acetonitrile were added to 40 μL of plasma sample for precipitation, and then the mixture was centrifuged at the speed of 500˜2000×g for 5˜20 minutes. 3. 100 μL of treated solution were taken, and the concentration of the test compound was analyzed by LC/MS/MS. The LC/MS/MS analytical instrument was AB Sciex API 4000.
Liquid Chromatography Analysis:
Condition of Liquid chromatography: Shimadzu LC-20AD pump
Chromatographic column: phenomenex Gemiu 5 um C18 50×4.6 mm
Mobile phase: Solution A is 0.1% aqueous formic acid solution, and solution B is acetonitrile
Elution time: 0-3.5 minutes, the eluent was as follows:
Mass spectrometry analysis:
Mass spectrometer setup conditions: positive ion electrospray ionization (ESI) mode.

HuH-7 cells = assay: Inhibition of HuH-7 cell proliferation (CellTiter-Glo); assay type: cell-based; conditions: Homo sapiens, 72 hours
Description: 4. Experiment on the Inhibition of HuH-7 Cell Proliferation
In this experiment, the inhibitory effect of the compounds on HuH-7 cell proliferation was tested by a CellTiter-Glo method, and the half maximal inhibitory concentration (IC50) of the compounds on the activity of cell proliferation was determined.
1) A 96-well cell culture plate was seeded with 50˜100 μL of HuH-7 cell suspension at a density of 1-5×10^4 cells/ml. The culture plate was incubated in an incubator for 16˜24 hours (37° C., 5% CO2).
(§5) 2) Different concentrations of the test compound in a gradient dilution were added to the cells in the culture plate. The culture plate was incubated in an incubator for 72 hours (37° C., 5% CO2).
(§6) 3) 50˜100 μL of CellTiter-Glo reagent were added to each well. Then, the culture plate was shaken or left to stand for 5˜30 minutes at room temperature.
(§7) 4) The chemiluminescence signal values of each plate were determined by a microplate reader.
(§8) 5) The inhibition rates were calculated according to the chemiluminescence signal values.
6) The IC50 of the compound was obtained by curve fitting according to the inhibition rates at different concentrations, and the cell activity of the specific Example compounds is shown in Table 2.

SK-HEP-1 cells = assay: Inhibition of SK-HEP-1 cell proliferation (CellTiter-Glo); assay type: cell-based; conditions: Homo sapiens, SK-HEP1, 72 hours
Description: 5. Experiment on the Inhibition of SK-HEP-1 Cell Proliferation
In this experiment, the inhibitory effect of the compounds on SK-HEP-1 cell proliferation was tested by a CellTiter-Glo method, and the half maximal inhibitory concentration (IC50) of the compounds on the activity of cell proliferation was determined.
1) A 96-well cell culture plate was seeded with 50˜100 μL of SK-HEP-1 cell suspension at a density of 1-5×10^4 cells/ml. The culture plate was incubated in an incubator for 16˜24 hours (37° C., 5% CO2).
as §5, §6, §7, §8
The IC50 of the compound was obtained by curve fitting according to the inhibition rates at different concentrations, and the cell activity of the specific Example compounds is shown in Table 2.

Hep 3B cells = assay: Inhibition of Hep 3B cell proliferation (CellTiter-Glo); assay type: cell-based; conditions: Homo sapiens, Hep3B, 72 hours
Description: 3. Experiment on the Inhibition of Hep 3B Cell Proliferation
In this experiment, the inhibitory effect of the compounds on Hep 3B cell proliferation was tested by a CellTiter-Glo method, and the half maximal inhibitory concentration (IC50) of the compounds on the activity of cell proliferation was determined.
1) A 96-well cell culture plate was seeded with 50˜100 μL of Hep 3B cell suspension at a density of 1-5×10^4 cells/ml. The culture plate was incubated in an incubator for 16-24 hours (37° C., 5% CO2).
as §5
3) 50-100 μL of CellTiter-Glo reagent were added to each well. Then, the culture plate was shaken or left to stand for 5˜30 minutes at room temperature.
as §7, §8
6) The IC50 of the compound was obtained by curve fitting according to the inhibition rates at different concentrations, and the cell activity of the specific example compounds is shown in Table 2.

Chain of FGFR4 kinase (P22455 22-802): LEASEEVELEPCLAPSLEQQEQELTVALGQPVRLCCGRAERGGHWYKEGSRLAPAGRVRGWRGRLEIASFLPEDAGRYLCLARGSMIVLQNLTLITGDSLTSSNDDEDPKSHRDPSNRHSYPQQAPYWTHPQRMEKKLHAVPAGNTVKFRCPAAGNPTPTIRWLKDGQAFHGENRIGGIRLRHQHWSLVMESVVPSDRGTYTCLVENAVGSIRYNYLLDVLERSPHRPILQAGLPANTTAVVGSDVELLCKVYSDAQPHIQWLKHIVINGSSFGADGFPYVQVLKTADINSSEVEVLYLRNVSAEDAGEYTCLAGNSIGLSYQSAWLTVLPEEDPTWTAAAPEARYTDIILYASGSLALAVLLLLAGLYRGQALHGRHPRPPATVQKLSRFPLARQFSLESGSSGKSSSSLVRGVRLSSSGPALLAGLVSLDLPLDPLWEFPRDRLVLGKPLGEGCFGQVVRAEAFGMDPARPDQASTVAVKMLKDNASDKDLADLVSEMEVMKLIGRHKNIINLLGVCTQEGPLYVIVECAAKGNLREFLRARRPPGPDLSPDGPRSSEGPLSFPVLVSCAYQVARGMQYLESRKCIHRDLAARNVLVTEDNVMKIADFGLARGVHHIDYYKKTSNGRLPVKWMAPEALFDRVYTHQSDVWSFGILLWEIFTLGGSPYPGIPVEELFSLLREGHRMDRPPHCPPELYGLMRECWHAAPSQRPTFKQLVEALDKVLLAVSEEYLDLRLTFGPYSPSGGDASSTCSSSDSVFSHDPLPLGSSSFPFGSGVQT

| Structure (SMILES) | IC50 (FGFR4 kinase) [nM] | IC50 (FGFR1 kinase) [nM] | Peak Time tmax [1] [h] | AUC(0-t) [1] [ng·h/mL] | AUC(0-inf) [1] [ng·h/mL] | half-life [1] [h] | MRT [1] [h] | Cmax [1] [ng/mL] | IC50 (HuH-7 cells) [nM] | IC50 (SK-HEP-1 cells) [nM] | IC50 (Hep 3B cells) [nM] |
| --- | --- | --- | --- | --- | --- | --- | --- | --- | --- | --- | --- |
| CN(Cc1cc2c(nc1C=O)N(C(=O)Nc1cc(N(C)C)c(C#N)cn1)CCC2)C(=O)C1CCCO1 (stereo not drawn) [Example 4, N-(5-Cyano-4-(dimethylamino)pyridin-2-yl)-7-formyl-6-((N-methyltetrahydrofuran-2-carboxamido)methyl)-3,4-dihydro-1,8-naphthyridin-1(2H)-carboxamide] | 4.54 | > 10000 | – | – | – | – | – | – | – | – | – |
| COCCNc1cc(NC(=O)N2CCCc3cc(CN(C)C(=O)[C@H]4CCCN4C(C)=O)c(C=O)nc32)ncc1C#N [Example 10, (R)-6-((1-Acetyl-N-methylpyrrolidin-2-carboxamido)methyl)-N-(5-cyano-4-((2-methoxyethyl)amino)pyridin-2-yl)-7-formyl-3,4-dihydro-1,8-naphthyridin-1(2H)-carboxamide] | 1.88 | > 10000 | 2 | 5260 | 5340 | 1 | 2.8 | 1960 | – | – | – |
| CO[C@@H]1CCN(c2cc(NC(=O)N3CCCc4cc(CN(C)C(=O)[C@H]5CCCO5)c(C=O)nc43)ncc2C#N)C1 [Example 18, N-(5-Cyano-4-((R)-3-methoxypyrrolidin-1-yl)pyridin-2-yl)-7-formyl-6-(((R)—N-methyltetrahydrofuran-2-carboxamido)methyl)-3,4-dihydro-1,8-naphthyridin-1(2H)-carboxamide] | 4.2 | > 10000 | – | – | – | – | – | – | – | – | – |
| CO[C@@H]1CCN(Cc2cc3c(nc2C=O)N(C(=O)Nc2cc(N[C@@H]4CCOC4)c(C#N)cn2)CCC3)C1=O [Example 87, N-(5-Cyano-4-(((R)-tetrahydrofuran-3-yl)amino)pyridin-2-yl)-7-formyl-6-(((R)-3-methoxy-2-carbonylpyrrolidin-1-yl)methyl)-3,4-dihydro-1,8-naphthyridin-1(2H)-carboxamide] | – | > 10000 | 2 | 12400 | 14700 | 1.2 | 2.6 | 3360 | 5.4 | > 10000 | 2.2 |
| COC[C@@H](C)Nc1cc(NC(=O)N2CCCc3cc(CN4CC[C@H](OC)C4=O)c(C=O)nc32)ncc1C#N [Example 89, N-(5-Cyano-4-(((R)-1-methoxypropan-2-yl)amino)pyridin-2-yl)-7-formyl-6-(((S)-3-methoxy-2-carbonylpyrrolidin-1-yl)methyl)-3,4-dihydro-1,8-naphthyridin-1(2H)-carboxamide] | – | > 10000 | 2 | 3100 | 3130 | 1 | 2.5 | 1990 | 2.3 | > 10000 | 1.9 |
| COC[C@@H](C)Nc1cc(NC(=O)N2CCCc3cc(CN(C)C(=O)[C@H]4CCCO4)c(C=O)nc32)ncc1C#N [Example 93, N-(5-Cyano-4-(((R)-1-methoxypropan-2-yl)amino)pyridin-2-yl)-7-formyl-6-(((R)—N-methyltetrahydrofuran-2-carboxamido)methyl)-3,4-dihydro-1,8-naphthyridin-1(2H)-carboxamide] | – | > 10000 | 2 | 9420 | 9480 | 0.9 | 2.5 | 2860 | 5 | > 10000 | 3.7 |
| CN(Cc1cc2c(nc1C=O)N(C(=O)Nc1cc(N[C@H]3CCOC3)c(C#N)cn1)CCC2)C(=O)[C@H]1CCCO1 [Example 94, N-(5-Cyano-4-(((S)-tetrahydrofuran-3-yl)amino)pyridin-2-yl)-7-formyl-6-(((R)—N-methyltetrahydrofuran-2-carboxamido)methyl)-3,4-dihydro-1,8-naphthyridin-1 (2H)-carboxamide] | – | > 10000 | 2 | 13000 | 12400 | 0.8 | 2.8 | 3750 | 13.8 | > 10000 | 3.9 |
| COCCNc1cc(NC(=O)N2CCCc3cc(CN(C)C(=O)C4CCOCC4)c(C=O)nc32)ncc1C#N [Example 98, N-(5-Cyano-4-((2-methoxyethyl)amino)pyridin-2-yl)-7-formyl-6-((N-methyltetrahydro-2H-pyran-4-carboxamido)methyl)-3,4-dihydro-1,8-naphthyridin-1(2H)-carboxamide] | – | > 10000 | 2 | 6700 | 6840 | 0.9 | 3.1 | 2690 | 11.2 | > 10000 | 2.7 |
| COCC(=O)N(C)Cc1cc2c(nc1C=O)N(C(=O)Nc1cc(N3CC[C@@H](OC)C3)c(C#N)cn1)CCC2 [Example 107, (R)—N-(5-Cyano-4-(3-methoxypyrrolidin-1-yl)pyridin-2-yl)-7-formyl-6-((2-methoxy-N-methylacetamido)methyl)-3,4-dihydro-1,8-naphthyridin-1(2H)-carboxamide] | – | > 10000 | 4 | 2630 | 2670 | 1 | 2.8 | 1940 | 7.3 | > 10000 | 1.6 |
